Experimental data published in patent US20240101538A1, “PROTEIN-PROTEIN INTERACTION MODULATORS OF AURORA KINASE A AND THEIR USE IN THE PREVENTION AND/OR TREATMENT OF CANCER” (EBERHARD KARLS UNIVERSITÄT TÜBINGEN, priority 2020, published 2024).
Where two headings read alike, the source gives them in different places.

Key:
NMCdkn2a^ARF−/− cells = test: Colony formation assay on NMCdkn2a^ARF−/− cells; format: cell-based, murine; settings: Mus musculus, 120 h, 5 days, read-out: EC (NMCdkn2a^ARF−/−)
Text: To evaluate the effect of small molecules equipped with R-spine interacting moieties, the inventors screened a focused library of proprietary p38a MAP-Kinase inhibitors which were equipped with R-spine interacting pharmacophores. To this end, the inventors utilized a screening system as developed in Dauch et al.^2 The screening system is based on colony formation assays of cell lines isolated from Nras-driven, Trp53-deficient murine HCCs, whose development is dependent on MYC (NMP53^−/− cells), as well as Nras-driven, Cdkn2a^ARF-deficient murine HCCs, which develop independently of MYC (NMCdkn2a^ARF−/− cells). Importantly, NMP53^−/− cells are sensitive to AURKA inhibitors, which induce a conformational shift in AURKA, whereas NMCdkn2a^ARF−/− are not sensitive to such compounds.
For Colony Formation Assays, cells were seeded at a density of 50 000 cells per 6 well and next day treated with a 2-fold dilution series of the indicated compounds or the highest corresponding DMSO concentration as control. After 5 days, the cells were fixed with a 10% formaldehyde solution for 30 min, washed once with water, stained with a 0.5% crystal violet solution for 30 min and washed twice with water. The compounds effective concentration (EC) was determined according to the lowest concentration in the dilution series, that inhibited cell growth substantially. The resulting benzamide containing hit structure 1, with a twofold selectivity towards NMP53^−/− cells (effective concentration on NMP53^−/− cells (EC): 2 μM, EC on Cdkn2a^ARF−/−: 4 μM, FIG. 1), served as the inventors' starting point for further compound development.

AURKA [1] = molecular target: T1, AURKA (Homo sapiens (Human), UniProt O14965); test: Radioisotope filter binding assay (HotSpotSM; ReactionBiology) for AURKA kinase inhibition; format: biochemical
T1 sequence (O14965 whole entry): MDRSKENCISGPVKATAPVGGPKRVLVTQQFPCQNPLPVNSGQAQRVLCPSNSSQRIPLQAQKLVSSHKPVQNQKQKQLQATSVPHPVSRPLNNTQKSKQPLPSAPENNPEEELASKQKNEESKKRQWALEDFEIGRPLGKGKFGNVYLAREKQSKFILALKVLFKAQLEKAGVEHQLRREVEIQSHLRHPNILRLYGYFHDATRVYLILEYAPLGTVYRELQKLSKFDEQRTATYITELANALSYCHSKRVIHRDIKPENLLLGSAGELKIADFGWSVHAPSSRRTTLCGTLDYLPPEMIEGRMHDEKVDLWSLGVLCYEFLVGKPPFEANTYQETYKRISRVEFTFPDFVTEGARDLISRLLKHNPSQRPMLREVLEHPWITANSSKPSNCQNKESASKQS
Text: Table 2 summarizes the EC values of different compounds of this invention determined by colony formation assays on NMP53^−/− and NMCdkn2a^ARF−/− cells, as well as the corresponding IC50 values for the kinase inhibition of AURKA, determined by radioisotope filter binding assay (HotSpotSM; ReactionBiology). Most compounds further show a strong selectivity for NMP53^−/− cells, which is indicated by a lower EC concentration of a particular compound required for inhibiting cell growth of NMP53^−/− cells compared to NMCdkn2a^ARF−/− cells.

AURKA [2] = molecular target: T1, AURKA; test: Binding to AURKA
NMP53^−/− cells = test: Immunofluorescence staining (α-tubulin, DAPI) of normal and abnormal spindles; format: cell-based, murine; settings: different treatment times
Procedure: The AURKA compounds of this invention trigger the formation of abnormal (multipolar and monopolar) spindles a few minutes after application. A. Representative images of immunofluorescence stainings with antibodies against α-tubulin (light grey) and DAPI (surrounded by a dashed white line) of a tumor cell line (NMP53^−/− cells) treated for 24 hours with compound 3a [N-(2-fluoro-5-((4-(1-methyl-1H-pyrazole-4-yl)benzyl)amino)phenyl)-3-(furan-2-yl)-propanamide] or DMSO as a control. B. Quantification of normal and abnormal spindles of immunofluorescence staining with antibodies against α-tubulin and DAPI of a tumor cell line (NMP53^−/− cells) after different treatment times with compound 3a according to this invention or DMSO as a control.
The AURKA compounds of this invention trigger the formation of abnormal (e.g. multipolar and/or monopolar) spindles in tumor cell lines (NMP53^−/− cells) (FIG. 8).

[3] = lowest concentration of 2-fold dilution series that inhibited cell growth substantially

IC50 (AURKA [1]) [nM] | binding to AURKA (AURKA [2]) | Compound | minimal effective concentration (NMCdkn2a^ARF−/− cells; [3]) [µM] | minimal effective concentration (NMCdkn2a^ARF−/− cells) [µM] | formation of abnormal spindles (NMP53^−/− cells)
27.6 | strong binding | O=C(CCc1ccco1)Nc1cc(NCc2ccc(-c3cn[nH]c3)cc2)ccc1F [Compound 2c, N-(5-((4-(1H-pyrazole-4-yl)benzyl)amino)-2-fluorophenyl)-3-(furan-2-yl)propanamide] | 1 | > 1 | 
> 10000 |  | Cn1cc(-c2ccc(CNc3ccc(F)c(NC(=O)CCc4ccco4)c3)cc2)cn1 [Compound 3a, N-(2-fluoro-5-((4-(1-methyl-1H-pyrazole-4-yl)benzyl)amino)phenyl)-3-(furan-2-yl)propanamide] | 0.25 to 0.5 | 0.25 to 0.5 | induce the formation of abnormal spindles within a few minutes
